In ChEMBL document CHEMBL3860098, “Sulfamide as Zinc Binding Motif in Small Molecule Inhibitors of Activated Thrombin Activatable Fibrinolysis Inhibitor (TAFIa)” (J Med Chem, 2016):
Each block holds one molecule with its values, some of them ahead of it.

Key:
Carboxypeptidase B2 = target: T1, Carboxypeptidase B2 (Homo sapiens, UniProt Q96IY4)
T1 sequence (Q96IY4 whole entry): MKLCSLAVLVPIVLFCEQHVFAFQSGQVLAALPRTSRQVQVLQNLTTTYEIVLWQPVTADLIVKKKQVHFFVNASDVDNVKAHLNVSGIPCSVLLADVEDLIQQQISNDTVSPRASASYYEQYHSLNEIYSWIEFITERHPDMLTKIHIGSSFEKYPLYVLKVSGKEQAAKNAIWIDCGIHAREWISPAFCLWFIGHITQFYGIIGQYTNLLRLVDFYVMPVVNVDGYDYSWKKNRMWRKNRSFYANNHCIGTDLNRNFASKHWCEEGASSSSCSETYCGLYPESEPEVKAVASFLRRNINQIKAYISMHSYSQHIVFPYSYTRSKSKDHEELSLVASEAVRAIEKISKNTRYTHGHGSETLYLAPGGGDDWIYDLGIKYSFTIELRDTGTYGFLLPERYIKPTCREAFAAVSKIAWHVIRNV
Description: Inhibition of activated human plasma TAFI incubated for 15 mins by chromogenic assay

[1] = target: Prothrombin (Homo sapiens) (UniProt P00734); assay: Inhibition of factor 2a (unknown origin) at 100 uM relative to control
[2] = target: T2, Coagulation factor VII (Homo sapiens) (UniProt P08709); assay: Inhibition of factor 7a (unknown origin) at 100 uM relative to control
T2 sequence (whole entry): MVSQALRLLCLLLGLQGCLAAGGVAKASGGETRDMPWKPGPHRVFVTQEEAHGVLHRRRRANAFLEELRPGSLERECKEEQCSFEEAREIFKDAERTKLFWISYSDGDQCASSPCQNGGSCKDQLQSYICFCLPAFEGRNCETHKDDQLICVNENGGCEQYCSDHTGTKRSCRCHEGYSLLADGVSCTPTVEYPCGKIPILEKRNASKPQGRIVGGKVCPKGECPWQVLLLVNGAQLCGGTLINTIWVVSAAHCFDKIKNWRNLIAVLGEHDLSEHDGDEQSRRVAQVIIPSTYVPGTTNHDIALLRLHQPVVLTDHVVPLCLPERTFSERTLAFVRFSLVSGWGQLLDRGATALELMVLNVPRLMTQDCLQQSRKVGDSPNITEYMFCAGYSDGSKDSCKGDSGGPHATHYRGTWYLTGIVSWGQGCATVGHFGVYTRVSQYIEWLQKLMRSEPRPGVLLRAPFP

[3] = target: Coagulation factor X (Homo sapiens) (UniProt P00742); assay: Inhibition of factor 10a (unknown origin) at 100 uM relative to control
[4] = target: Coagulation factor XI (Homo sapiens) (UniProt P03951); assay: Inhibition of factor 11a (unknown origin) at 100 uM relative to control
[5] = target: T3, Coagulation factor XII (Homo sapiens) (UniProt P00748); assay: Inhibition of factor 12a (unknown origin) at 100 uM relative to control
T3 sequence (whole entry): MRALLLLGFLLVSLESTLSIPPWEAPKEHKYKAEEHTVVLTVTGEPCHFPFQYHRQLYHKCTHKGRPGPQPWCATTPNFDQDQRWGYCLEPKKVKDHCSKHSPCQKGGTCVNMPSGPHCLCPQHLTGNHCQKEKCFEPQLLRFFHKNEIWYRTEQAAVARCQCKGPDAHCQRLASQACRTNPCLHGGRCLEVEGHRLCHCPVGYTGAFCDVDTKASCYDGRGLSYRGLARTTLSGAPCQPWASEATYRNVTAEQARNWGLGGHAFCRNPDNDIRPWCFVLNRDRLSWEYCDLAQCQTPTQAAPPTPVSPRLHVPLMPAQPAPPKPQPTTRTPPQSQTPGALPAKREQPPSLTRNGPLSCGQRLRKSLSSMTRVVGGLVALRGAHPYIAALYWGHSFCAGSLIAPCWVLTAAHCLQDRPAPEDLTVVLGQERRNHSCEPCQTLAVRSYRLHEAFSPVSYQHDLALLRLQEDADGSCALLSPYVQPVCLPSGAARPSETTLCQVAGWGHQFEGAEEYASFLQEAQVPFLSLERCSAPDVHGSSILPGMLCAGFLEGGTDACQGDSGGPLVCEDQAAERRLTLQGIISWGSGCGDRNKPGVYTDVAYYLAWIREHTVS

[6] = target: Urokinase-type plasminogen activator (Homo sapiens) (UniProt P00749); assay: Inhibition of urokinase (unknown origin) at 100 uM relative to control
[7] = target: T4, Complement C1s subcomponent (Homo sapiens) (UniProt P09871); assay: Inhibition of C1s (unknown origin) at 100 uM relative to control
T4 sequence (whole entry): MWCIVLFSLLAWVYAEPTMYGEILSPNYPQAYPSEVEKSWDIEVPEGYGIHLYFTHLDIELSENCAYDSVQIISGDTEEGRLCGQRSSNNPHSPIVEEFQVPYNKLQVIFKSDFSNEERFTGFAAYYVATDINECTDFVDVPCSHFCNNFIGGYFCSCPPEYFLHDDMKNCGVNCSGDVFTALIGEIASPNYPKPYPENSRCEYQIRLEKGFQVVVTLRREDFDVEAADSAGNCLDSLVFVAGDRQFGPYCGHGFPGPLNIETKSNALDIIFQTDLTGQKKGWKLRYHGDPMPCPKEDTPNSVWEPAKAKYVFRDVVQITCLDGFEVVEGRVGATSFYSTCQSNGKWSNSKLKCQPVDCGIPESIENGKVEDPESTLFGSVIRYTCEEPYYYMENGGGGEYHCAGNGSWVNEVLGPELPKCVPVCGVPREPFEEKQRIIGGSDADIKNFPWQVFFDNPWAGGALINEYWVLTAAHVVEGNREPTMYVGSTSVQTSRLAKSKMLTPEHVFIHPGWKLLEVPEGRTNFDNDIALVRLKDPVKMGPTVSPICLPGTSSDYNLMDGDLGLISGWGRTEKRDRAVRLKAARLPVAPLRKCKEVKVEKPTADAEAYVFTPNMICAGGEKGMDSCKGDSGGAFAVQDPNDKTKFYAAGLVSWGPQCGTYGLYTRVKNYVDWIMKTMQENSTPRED

[8] = target: Tissue-type plasminogen activator (Homo sapiens) (UniProt P00750); assay: Inhibition of tPA (unknown origin) at 100 uM relative to control
Homo sapiens [9] = species: Homo sapiens; assay: Inhibition of tryptase (unknown origin) at 100 uM relative to control
Homo sapiens [10] = species: Homo sapiens; assay: Inhibition of trypsin (unknown origin) at 100 uM relative to control
[11] = target: Plasminogen (Homo sapiens) (UniProt P00747); assay: Inhibition of plasmin (unknown origin) at 100 uM relative to control
[12] = target: Plasma kallikrein (Homo sapiens) (UniProt P03952); settings: 100 uM
Chain of Plasma kallikrein (Homo sapiens) (P03952 20-390 limits assumed): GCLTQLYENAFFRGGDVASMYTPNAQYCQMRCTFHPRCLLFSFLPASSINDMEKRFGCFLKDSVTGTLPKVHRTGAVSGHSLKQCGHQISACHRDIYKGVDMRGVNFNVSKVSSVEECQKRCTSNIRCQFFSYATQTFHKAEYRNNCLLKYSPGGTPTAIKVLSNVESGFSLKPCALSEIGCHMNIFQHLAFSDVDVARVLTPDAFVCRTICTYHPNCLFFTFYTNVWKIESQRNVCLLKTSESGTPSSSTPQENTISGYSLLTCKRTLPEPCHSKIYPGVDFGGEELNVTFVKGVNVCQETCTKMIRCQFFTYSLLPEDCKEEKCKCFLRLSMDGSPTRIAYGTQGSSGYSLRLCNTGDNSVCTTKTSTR
Chain of Plasma kallikrein (Homo sapiens) (P03952 391-638 limits assumed): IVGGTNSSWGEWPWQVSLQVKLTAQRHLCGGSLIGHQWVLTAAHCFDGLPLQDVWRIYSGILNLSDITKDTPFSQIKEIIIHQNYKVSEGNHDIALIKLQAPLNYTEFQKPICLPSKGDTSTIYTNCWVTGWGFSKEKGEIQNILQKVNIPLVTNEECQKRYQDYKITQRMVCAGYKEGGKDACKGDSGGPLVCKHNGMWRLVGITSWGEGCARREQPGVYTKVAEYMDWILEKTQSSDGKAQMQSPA
Description: Inhibition of KLKB1 (unknown origin) at 100 uM relative to control

Chain of Plasminogen (Homo sapiens) (P00747 97-580 limits assumed): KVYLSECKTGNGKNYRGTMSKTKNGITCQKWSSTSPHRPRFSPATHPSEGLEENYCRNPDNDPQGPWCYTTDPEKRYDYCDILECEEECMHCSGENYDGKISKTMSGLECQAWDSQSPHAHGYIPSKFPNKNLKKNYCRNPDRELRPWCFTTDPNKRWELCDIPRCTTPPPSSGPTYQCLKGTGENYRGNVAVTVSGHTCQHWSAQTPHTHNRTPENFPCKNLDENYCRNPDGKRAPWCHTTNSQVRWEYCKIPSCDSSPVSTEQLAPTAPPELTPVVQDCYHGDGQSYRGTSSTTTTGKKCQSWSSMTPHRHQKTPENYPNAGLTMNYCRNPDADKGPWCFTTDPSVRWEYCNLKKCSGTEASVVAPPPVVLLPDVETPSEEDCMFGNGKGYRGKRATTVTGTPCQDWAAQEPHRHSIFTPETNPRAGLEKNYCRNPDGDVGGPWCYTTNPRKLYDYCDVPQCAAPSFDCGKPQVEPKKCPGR
Chain of Plasminogen (Homo sapiens) (P00747 581-810 limits assumed): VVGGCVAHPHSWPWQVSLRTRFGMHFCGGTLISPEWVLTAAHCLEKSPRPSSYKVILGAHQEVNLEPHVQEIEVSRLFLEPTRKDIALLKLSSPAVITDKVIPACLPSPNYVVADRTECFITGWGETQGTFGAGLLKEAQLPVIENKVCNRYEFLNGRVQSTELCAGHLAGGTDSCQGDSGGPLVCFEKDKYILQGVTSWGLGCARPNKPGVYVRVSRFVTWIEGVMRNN
Chain of Coagulation factor XI (Homo sapiens) (P03951 19-387 limits assumed): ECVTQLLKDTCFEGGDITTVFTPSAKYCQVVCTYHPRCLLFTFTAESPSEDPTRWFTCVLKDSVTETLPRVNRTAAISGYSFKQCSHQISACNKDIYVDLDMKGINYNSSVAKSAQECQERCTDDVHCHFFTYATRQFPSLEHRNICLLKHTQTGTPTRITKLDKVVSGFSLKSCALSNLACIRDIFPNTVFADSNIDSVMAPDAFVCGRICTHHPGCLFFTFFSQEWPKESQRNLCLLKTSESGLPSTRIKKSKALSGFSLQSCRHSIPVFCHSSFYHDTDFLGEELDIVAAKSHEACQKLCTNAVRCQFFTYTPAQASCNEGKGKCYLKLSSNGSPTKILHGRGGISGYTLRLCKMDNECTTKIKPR
Chain of Coagulation factor XI (Homo sapiens) (P03951 388-625 limits assumed): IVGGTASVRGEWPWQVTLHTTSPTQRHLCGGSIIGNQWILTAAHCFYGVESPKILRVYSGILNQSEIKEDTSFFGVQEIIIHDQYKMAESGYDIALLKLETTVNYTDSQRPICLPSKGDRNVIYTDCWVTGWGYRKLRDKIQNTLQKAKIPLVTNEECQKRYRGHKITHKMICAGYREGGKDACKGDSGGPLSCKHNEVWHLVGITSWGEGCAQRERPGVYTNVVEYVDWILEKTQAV
Chain of Coagulation factor X (Homo sapiens) (P00742 41-179 limits assumed): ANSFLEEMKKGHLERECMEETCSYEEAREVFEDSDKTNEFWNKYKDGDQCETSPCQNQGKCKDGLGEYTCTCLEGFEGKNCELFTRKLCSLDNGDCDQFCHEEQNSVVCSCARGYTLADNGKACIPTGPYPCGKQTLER
Chain of Coagulation factor X (Homo sapiens) (P00742 235-488 limits assumed): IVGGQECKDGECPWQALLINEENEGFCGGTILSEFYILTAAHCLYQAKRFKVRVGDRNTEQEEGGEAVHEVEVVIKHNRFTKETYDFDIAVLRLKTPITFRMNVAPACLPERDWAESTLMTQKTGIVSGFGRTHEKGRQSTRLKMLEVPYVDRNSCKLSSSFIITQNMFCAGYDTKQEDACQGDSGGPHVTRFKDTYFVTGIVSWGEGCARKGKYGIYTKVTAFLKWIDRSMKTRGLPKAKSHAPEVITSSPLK
Chain of Tissue-type plasminogen activator (Homo sapiens) (P00750 36-562 limits assumed): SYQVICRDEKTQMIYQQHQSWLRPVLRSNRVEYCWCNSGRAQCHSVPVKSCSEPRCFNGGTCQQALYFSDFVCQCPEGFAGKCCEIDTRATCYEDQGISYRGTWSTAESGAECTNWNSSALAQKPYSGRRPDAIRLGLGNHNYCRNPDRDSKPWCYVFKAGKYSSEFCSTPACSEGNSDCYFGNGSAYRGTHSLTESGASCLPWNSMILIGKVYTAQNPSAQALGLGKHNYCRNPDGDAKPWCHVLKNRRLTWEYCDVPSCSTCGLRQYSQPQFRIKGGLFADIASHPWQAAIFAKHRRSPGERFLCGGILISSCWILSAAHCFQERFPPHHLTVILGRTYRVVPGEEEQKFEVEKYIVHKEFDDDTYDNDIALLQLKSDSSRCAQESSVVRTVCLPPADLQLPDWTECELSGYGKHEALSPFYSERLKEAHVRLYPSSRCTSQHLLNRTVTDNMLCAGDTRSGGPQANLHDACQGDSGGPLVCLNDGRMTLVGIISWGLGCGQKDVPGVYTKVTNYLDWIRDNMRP

Compound: CC(=O)NCCCC[C@H](NS(=O)(=O)N[C@@H](CC1CCCCC1)C(=O)N[C@H]1C[C@H]2CC[C@]1(C)C2(C)C)C(=O)O
IC50 (Carboxypeptidase B2): > 30 µM

Compound: NCCCC[C@H](NS(N)(=O)=O)C(=O)O
IC50 (Carboxypeptidase B2): 15 µM

Compound: CC1(C)[C@@H]2CC[C@@]1(C)[C@@H](NC(=O)[C@H](CC1CCCCC1)NS(=O)(=O)N[C@@H](CC1CCC(N)CC1)C(=O)O)C2 (some centres undefined)
IC50 (Carboxypeptidase B2): > 30 µM

Compound: CC1(C)C2CCC1(C)[C@@H](NC(=O)[C@H](CC1CCCCC1)NC(=O)N[C@@H](CCCCN)C(=O)O)C2 (some centres undefined)
IC50 (Carboxypeptidase B2): 0.003 µM

Compound: CC1(C)[C@@H]2CC[C@@]1(C)[C@@H](NC(=O)[C@@H](NS(=O)(=O)N[C@@H](CCCCN)C(=O)O)C1CCCCC1)C2
IC50 (Carboxypeptidase B2): 47 µM

Further lines, results first:

inhibition [1]: < 40% | inhibition [2]: < 40% | inhibition [3]: < 40% | inhibition [4]: < 40% | inhibition [5]: < 40% | inhibition [6]: < 40% | inhibition [7]: < 40% | inhibition [8]: < 40% | inhibition (Homo sapiens [9]): < 40% | inhibition (Homo sapiens [10]): < 40% | inhibition [11]: < 40% | inhibition [12]: < 40%
Compound: CC1(C)[C@@H]2CC[C@@]1(C)[C@@H](NC(=O)[C@H](CC1CCCCC1)NS(=O)(=O)N[C@@H](CCCCN)C(=O)O)C2

IC50 (Carboxypeptidase B2): > 30 µM
Compound: CC1(C)[C@@H]2CC[C@@]1(C)[C@@H](NC(=O)[C@H](CC1CCCCC1)NS(=O)(=O)N[C@@H](CCCCNC(N)=O)C(=O)O)C2

IC50 (Carboxypeptidase B2): > 30 µM
Compound: CC(C)[C@H](NS(=O)(=O)N[C@@H](CCCCN)C(=O)O)C(=O)NC12CC3CC(CC(C3)C1)C2
